Columns and labels:
[1] = tested on: T-Rex 293 cell line SC3 cells having increased expression of androgen receptor protein due to exposure to doxycycline; experiment: Cellular growth inhibition, T-Rex 293 SC3 cells with doxycycline (increased androgen receptor expression), CellTiter-Glo; assay type: cell-based; details: T-Rex 293 SC3 cells with 10 ng/mL doxycycline (increased androgen receptor expression), 72 hours, CellTiter-Glo 2.0
How it was run: (§1)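 Growth inhibition is measured in an inducible AR-expressing T-Rex 293 clone, SC3, cultured with or without 10 ng/mL doxycycline in hormone-depleted medium. Test compounds are applied for 72 hours. GI50 values derive from CellTiter-Glo 2.0 signal fitted by four-parameter regression.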

[2] = tested on: T-Rex 293 cell line SC3 cells lacking increased expression of androgen receptor protein; experiment: Cellular growth inhibition, T-Rex 293 SC3 cells without doxycycline (no increased androgen receptor expression), CellTiter-Glo; assay type: cell-based; details: T-Rex 293 SC3 cells not exposed to doxycycline (no increased androgen receptor expression), 72 hours
How it was run: as §1

VCaP cells = experiment: Cellular growth inhibition assay for VCaP cells, CellTiter-Glo; assay type: cell-based, human; details: 72 hours
How it was run: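 GI50 values come from four-parameter curve fits of luminescence data normalized to a zero baseline. Compound, in medium with 0.5% DMSO, was added one day after plating and left for 72 h before CellTiter-Glo 2.0 addition.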

T47D cells = experiment: Cellular Growth Inhibition Assay for T47D Cells (CellTiter-Glo); assay type: cell-based, human; details: 72 hours
How it was run: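 GI50 values derive from four-parameter regression of CellTiter-Glo 2.0 luminescence, using zero luminescence as baseline. Human breast cancer T47D cells (3000/well; DMEM, 10% FBS, 0.2 units/mL insulin) were exposed for 72 h to compound dilutions at 0.5% DMSO, with dosing starting 24 h after seeding.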

SMILES | GI50 [1] [nM] | GI50 [2] [nM] | GI50 (VCaP cells) [nM] | GI50 (T47D cells) [nM] | GI50 (VCaP cells; Homo sapiens) [nM] | GI50 (T47D cells; Homo sapiens) [nM]
Cn1cc(-c2cc(C(C)(C)O)ccc2Oc2cccc(OCCC3CC4(C3)CN(c3ncc(C(=O)N[C@H]5C(C)(C)[C@H](Oc6ccc(C#N)c(Cl)c6)C5(C)C)cn3)C4)c2F)c2cc[nH]c2c1=O [Compound I-210] | < 500 | < 500 | < 500 | 500 to 1500 |  | 
Cn1cc(-c2cc(C(C)(C)O)ccc2Oc2ccc(OC3CC4(C3)CC3(CCN(c5ncc(C(=O)N[C@H]6C(C)(C)[C@H](Oc7ccc(C#N)c(Cl)c7)C6(C)C)cn5)CC3)C4)cc2)c2cc[nH]c2c1=O [Compound I-326] | < 500 | > 3000 |  |  | < 500 | < 500
Cn1cc(-c2ccccc2Oc2cccc(OCCC3CCN(c4ncc(C(=O)N[C@H]5C(C)(C)[C@H](Oc6ccc(C#N)c(Cl)c6)C5(C)C)cn4)CC3)c2F)c2cc[nH]c2c1=O [Compound I-117] | < 500 | > 3000 | < 500 | 500 to 1500 |  | 
CCS(=O)(=O)Nc1ccc(Oc2cccc(CC3CCN(c4ncc(C(=O)N[C@H]5C(C)(C)[C@H](Oc6ccc(C#N)c(Cl)c6)C5(C)C)cn4)CC3)c2)c(-c2cn(C)c(=O)c3[nH]ccc23)c1 [Compound I-23] | < 500 | < 500 |  |  | < 500 | < 500
Cn1cc(-c2cc(C(C)(C)O)ccc2Oc2ccc(N3CC(CC4CN(c5ccc(C(=O)N[C@H]6C(C)(C)[C@H](Oc7ccc(C#N)c(Cl)c7)C6(C)C)cn5)C4)C3)cc2)c2cc[nH]c2c1=O [Compound I-316] | < 500 | < 500 |  |  | < 500 | 500 to 1500
Cn1cc(-c2cc(C(C)(C)O)ccc2Oc2ccc(OC3CCN(C4CCN(c5ncc(C(=O)N[C@H]6C(C)(C)[C@H](Oc7ccc(C#N)c(Cl)c7)C6(C)C)cn5)CC4)CC3)cc2)c2cc[nH]c2c1=O [Compound I-328] | < 500 | < 500 |  |  | < 500 | < 500
Cn1cc(-c2cc(C(C)(C)O)ccc2OCC(C)(C)CN2CC(OC3CCN(c4ncc(C(=O)NC5C(C)(C)C(Oc6ccc(C#N)c(Cl)c6)C5(C)C)cn4)CC3)C2)c2cc[nH]c2c1=O (stereo not shown) [Compound I-282, N-[3-(3-chloro-4-cyano-phenoxy)-2,2,4,4-tetramethyl-cyclobutyl]-2-[4-[1-[3-[4-(1-hydroxy-1-methyl-ethyl)-2-(6-methyl-7-oxo-1H-pyrrolo[2,3-c]pyridin-4-yl)phenoxy]-2,2-dimethyl-propyl]azetidin-3-yl]oxy-1-piperidyl]pyrimidine-5-carboxamide] | < 500 | 500 to 1500 |  |  | < 500 | 500 to 1500
CCS(=O)(=O)Nc1ccc(Oc2cccc(C3CC(N4CCN(c5ncc(C(=O)N[C@H]6C(C)(C)[C@H](Oc7ccc(C#N)c(Cl)c7)C6(C)C)cn5)CC4)C3)c2)c(-c2cn(C)c(=O)c3[nH]ccc23)c1 (stereo partly shown) [Compound I-180] | < 500 | > 3000 |  |  | < 500 | < 500
Cn1cc(-c2cc(C(C)(C)O)ccc2Oc2ccc(N3CC(C4CC5(C4)CN(c4ncc(C(=O)N[C@H]6C(C)(C)[C@H](Oc7ccc(C#N)c(Cl)c7)C6(C)C)cn4)C5)C3)cc2)c2cc[nH]c2c1=O [Compound I-351] | < 500 | < 500 | < 500 | < 500 |  | 
CN(C1CCN(c2ncc(C(=O)N[C@H]3C(C)(C)[C@H](Oc4ccc(C#N)c(Cl)c4)C3(C)C)cn2)CC1)C1CN(c2cccc(Oc3ccc(C(C)(C)O)cc3-c3cn(C)c(=O)c4[nH]ccc34)c2F)C1 [Compound I-230] | < 500 | 500 to 1500 | < 500 | < 500 |  | 
CCS(=O)(=O)Cc1ccc(Oc2cccc(CCCCC3CCN(c4ncc(C(=O)N[C@H]5C(C)(C)[C@H](Oc6ccc(C#N)c(Cl)c6)C5(C)C)cn4)CC3)c2)c(-c2cn(C)c(=O)c3[nH]ccc23)c1 [Compound I-263] | < 500 | > 3000 |  |  | < 500 | < 500
CCS(=O)(=O)Nc1ccc(Oc2cccc(N(C)C3CN(c4ncc(C(=O)N[C@H]5C(C)(C)[C@H](Oc6ccc(C#N)c(Cl)c6)C5(C)C)cn4)C3)c2)c(-c2cn(C)c(=O)c3[nH]ccc23)c1 [Compound I-31] | 500 to 1500 | < 500 |  |  | < 500 | < 500
CC(=O)N(C)c1ccc(Oc2cccc(OCCOC3CCN(c4ncc(C(=O)N[C@H]5C(C)(C)[C@H](Oc6ccc(C#N)c(Cl)c6)C5(C)C)cn4)CC3)c2)c(-c2cn(C)c(=O)c3[nH]ccc23)c1 [Compound I-58] | < 500 | > 3000 |  |  | < 500 | 500 to 1500
Cn1cc(-c2cc(NS(=O)(=O)C3CC3)ccc2Oc2cccc(N3CC(CC4CCN(c5ncc(C(=O)N[C@H]6C(C)(C)[C@H](Oc7ccc(C#N)c(Cl)c7)C6(C)C)cn5)CC4)C3)c2F)c2cc[nH]c2c1=O [Compound I-170] | < 500 | > 3000 | < 500 | 500 to 1500 |  | 
Cn1cc(-c2cc(C(C)(C)O)ccc2Oc2ccc(N3CC4(C3)CN(c3ncc(C(=O)N[C@H]5C(C)(C)[C@H](Oc6ccc(C#N)c(Cl)c6)C5(C)C)cn3)C4)cc2)c2cc[nH]c2c1=O [Compound I-330] | < 500 | < 500 | < 500 | < 500 |  | 
Cn1cc(-c2cc(N)ccc2Oc2cccc(N3CC(N4CCN(c5ncc(C(=O)N[C@H]6C(C)(C)[C@H](Oc7ccc(C#N)c(Cl)c7)C6(C)C)cn5)CC4)C3)c2)c2cc[nH]c2c1=O [Compound I-89, 2-(4-(1-(3-(4-amino-2-(6-methyl-7-oxo-6,7-dihydro-1H-pyrrolo[2,3-c]pyridin-4-yl)phenoxy)phenyl)azetidin-3-yl)piperazin-1-yl)-N-((1r, 3r)-3-(3-chloro-4-cyanophenoxy)-2,2,4,4-tetramethylcyclobutyl)pyrimidine-5-carboxamide] | < 500 | > 3000 |  |  | < 500 | 500 to 1500
Cn1cc(-c2cc(C(C)(C)O)ccc2Oc2cccc(N3CC(CN4C5CCC4CC(c4ncc(C(=O)N[C@H]6C(C)(C)[C@H](Oc7ccc(C#N)c(Cl)c7)C6(C)C)cn4)C5)C3)c2F)c2cc[nH]c2c1=O (stereo partly shown) [Compound I-258] | < 500 | 500 to 1500 |  |  | < 500 | < 500
CCS(=O)(=O)Nc1ccc(Oc2cccc(OC3CCN(c4ncc(C(=O)N[C@H]5C(C)(C)[C@H](Oc6ccc(C#N)c(Cl)c6)C5(C)C)cn4)CC3)c2)c(-c2cn(C)c(=O)c3[nH]ccc23)c1 [Compound I-24] | < 500 | < 500 |  |  | < 500 | < 500
CCS(=O)(=O)c1ccc(OC2CC(CCN3CCC4(CCN(c5ncc(C(=O)N[C@H]6C(C)(C)[C@H](Oc7ccc(C#N)c(Cl)c7)C6(C)C)cn5)C4)C3)C2)c(-c2cn(C)c(=O)c3[nH]ccc23)c1 (stereo partly shown) [Compound I-270, N-[3-(3-chloro-4-cyano-phenoxy)-2,2,4,4-tetramethyl-cyclobutyl]-2-[7-[2-[3-[4-ethylsulfonyl-2-(6-methyl-7-oxo-1H-pyrrolo[2,3-c]pyridin-4-yl)phenoxy]cyclobutyl]ethyl]-2,7-diazaspiro[4.4]nonan-2-yl]pyrimidine-5-carboxamide] | < 500 | 500 to 1500 |  |  | < 500 | < 500

From patent publication US20250388605A1, “HETEROBIFUNCTIONAL COMPOUNDS AND METHODS OF TREATING DISEASE” (Halda Therapeutics OpCo, Inc., priority 2022, published 2025)
